Assay results: patent US11969431B2, “Formulations for treatment of post-traumatic stress disorder” (Glytech LLC, priority 2017, dated 2024)
“Also recorded” adds a separate entry of the source.

Assays:
[1] = tested on: Wistar-Kyoto (WKY) rats; assay: Cued fear conditioning / extinction training, freezing behavior in WKY rats; type: in vivo, rat; conditions: for Freezing behavior, direction of change vs. vehicle: WKY rats, across days 1 and 3
From the text: Inbred Wistar-Kyoto (WKY) rats have been used as models of several behavioral deficits, such as stress vulnerability and sleep disturbance.
Fear memories are crucial in psychiatric conditions such as PTSD. Pavlovian fear conditioning (FC) test is a widely-used behavioral assay in rodents for measurement of aversive learning and memory through learned associations between aversive stimulus (a mild electric shock) and a specific cue (e.g., a tone; cued conditioning) or a context in which electric shock had occurred (contextual conditioning). Once the association is established, the conditioned stimulus (CS, i.e. tone or context) can induce fear response in a similar manner to unconditioned stimulus (US, i.e. electric shock). However, if CS repeatedly presents without combination of US, extinction occurs in normal animals. Fear extinction is usually regarded as a new inhibitory learning after repeated or prolonged CS presentations without the US, which causes a gradual decrease in the magnitude and/or frequency of the conditioned response (i.e. freezing response in FC test). Deficits in such inhibitory learning can be regarded as a hallmark of clinical PTSD.
Young adult (about 7 weeks of age), male WKY and Wistar rats purchased from Charles River Laboratory were used in this study. Upon receipt, animals were group-housed (2 per cage) and acclimated for at least 7 days. All rats were examined, handled, and weighed prior to initiation of the study to assure adequate health and suitability. During the course of the study, 12/12 light/dark cycles were maintained. The room temperature was maintained between 20 and 23° C. with a relative humidity maintained around 50%. Rats were randomly assigned to each treatment group. All testing was conducted during the animals' light cycle.
When combined with DSC, the combinations were given in a cocktail 30 minute prior to extinction test • D-CPP-ene (5 mg/kg) was be dissolved in acidified saline and administered s.c 30 min prior to extinction test at a dose volume of 2 ml/kg • Lurasidone (Lur, 0.2 mg/kg was dissolved in saline and administered IP 30 min prior to test at a dose volume of 1 ml/kg • Quetiapine (QTP, 10 mg/kg) was dissolved in acidified saline and administered s.c 30 min prior to test at a dose volume of 1 ml/kg
The experiment was conducted in the fear conditioning system manufactured by Coulbourn Instruments (PA, USA). Animal's body movements are captured with a video system and the FreezeFrame software, and freezing is analyzed automatically by the FreezeView software (Coulbourn Instruments, PA, USA).
Fear Conditioning Training: Animals were exposed to 5 CS-US pairings of a 10 sec tone (70 dB conditioned stimulus/CS) co-terminating with a brief electric shock (0.5 mA for 1.0 sec unconditioned stimulus/US). The 5 CS-US pairings are separated by a 60 sec interval with the first CS at 120 s. The rats stage in boxes for one minute after the last shock before being moved out.
Extinction training: Extinction training was conducted twice at 24 and 72 hr post FC training. A cued FC extinction paradigm was applied. The extinction training was conducted in the “cylinder”, a changed context which is different from the boxes of FC training. The extinction training lasted 32-40 min, including 8-10 identical bins. Each bin includes a 2 min tone period followed by a 2 min no-tone period (inter-trial interval, ITI).
Percent freezing during bins 7-8 of extinction trainings (24 hr and 72 hr) was used to evaluate effectiveness of treatment. Data were analyzed by […] analyses of variance (ANOVA), with treatment/group and extinction stage (cues or bins) set as factors. Fisher LSD method was used in Post hoc comparisons if applicable.

[2] = tested on: mice; assay: Marble burying test; type: in vivo; conditions: for Effects on marble burying relative to racemic mirtazapine: Example 4, FIG. 2
[3] = Pharmacokinetics of DCS in rodent, plasma level by UPLC/MS/MS; type: in vivo, C57BL/6J mice
From the text: Male C57BL/6J mice (8 weeks old) from Jackson Laboratories (Bar Harbor, Maine) were used. Upon receipt, mice were assigned unique identification numbers (tail marked) and were group housed in OPTImice cages. All animals were acclimated to the colony room for 1 week prior to testing. During the period of acclimation, animals were examined on a regular basis, handled, and weighed to assure adequate health and suitability. Animals were maintained on a 12/12 light/dark cycle. The room temperature was maintained between 20 and 23° C. with a relative humidity maintained between 30% and 70%. Chow and water were provided ad libitum for the duration of the study. All testing was performed during the animal's light cycle phase.
Sample were collected at 30, 60 and 120 min from separate animals. Mean plasma levels across the 30-120 min timepoint was used for analysis. At each time point, trunk blood was collected in tubes containing K2EDTA and kept on ice for short-term storage. Within 15 minutes of blood collection, tubes were centrifuged for 10 minutes at 10,000 RPM in a refrigerated centrifuge. The supernatant (plasma) was extracted and transferred to pre-labeled tubes on dry ice. Samples were stored at approximately −80° C. until analyses.
Analysis of DCS in plasma and brain samples were performed utilizing an UPLC/MS/MS system consisted of an Acquity UPLC chromatographic system and a Quattro Premier XE triple quad mass spectrometer, both from Waters.
The range of standards utilized was 1.0-1000 ng/mL. Plasma samples were prepared in the same manner but with 10 μL of sample and 90 μL of the internal standard mix to provide 100 μL of sample after dilution for triplicate analysis.
The internal standards D9-Ach (parent 154.95DA to fragment 86.7DA) was incorporated into the samples to correct for sample matrix and instrument variability providing a more robust data set.

[4] = tested on: C57BL/6J mice; assay: Open field (OF) test, locomotor activity; conditions: for Locomotor activity vs. vehicle: 30 min after administration; for Locomotor activity, Mean distance travelled over 30 min: C57BL/6J mice
[5] = Pharmacokinetics of 250 mg PO D-cycloserine every 12 hrs in healthy volunteers (Park et al. 2015); type: in vivo, humans; conditions: 250 mg PO every 12 hrs; corresponding to AUC over 12 hrs
[6] = molecular target: T1, NMDAR (Homo sapiens, UniProt Q05586); conditions: cited from earlier work
T1 construct: endogenous in cells; host or cells: human subjects in vivo (neuronal receptors); no isolated protein

[7] = Pharmacokinetics of D-cycloserine in humans after 500 mg (Zhu et al. 2001); type: in vivo; conditions: corresponding to AUC over 24 hr
From the text: Critical parameters include maximum (peak) concentration achieved (Cmax), time to maximum concentration (Tmax) and area under the curve (AUC) during the dosing interval.

[8] = molecular target: T1, NMDAR; assay: D-cycloserine plasma concentrations linked to agonist, antagonist and toxic effects; summary of human PK studies; type: in vivo, humans; conditions: consistent finding of human PK studies
Method: D-cycloserine is an anti-tuberculosis medication that also acts as a partial glycine-site […] (aka mixed agonist/antagonist). […] Plasma concentrations associated with primarily agonist effects are primarily […]. Plasma concentrations associated with antagonist effects are >25 μg/mi. Increased liability for toxicity is observed at plasma levels >35 μg/mL.
Accordingly, the daily dose for producing such plasma levels will necessarily be above 500 mg/day, as described above.

O=C1[C@@H]2[C@H]3CC[C@H](C3)[C@@H]2C(=O)N1C[C@@H]1CCCC[C@H]1CN1CCN(c2nsc3ccccc23)CC1 [Lurasidone]
Percentage WKY animals showing freezing behavior >85% of the time in response to cue stimuli across day 1 and 3 following fear conditioning, Mean ([1]; lurasidone 0.2 mg/kg IP 30 min prior to test): 0.531

OCCOCCN1CCN(C2=Nc3ccccc3Sc3ccccc32)CC1 [QTP, Quetiapine]
Percentage WKY animals showing freezing behavior >85% of the time in response to cue stimuli across day 1 and 3 following fear conditioning, Mean ([1]; quetiapine 10 mg/kg s.c. 30 min prior to test): 0.625
Freezing behavior, direction of change vs. vehicle ([1]; quetiapine 10 mg/kg s.c.): Increase
Freezing behavior, direction of change vs. vehicle ([1]; quetiapine 10 mg/kg s.c., listed as quetiapine): tended to increase freezing behavior

CN1CCN2c3ncccc3Cc3ccccc3[C@@H]2C1 [R-mirtazapine, R-(−)-mirtazapine]
Effects on marble burying relative to racemic mirtazapine [2]: less robust
Number of marbles buried compared to vehicle ([2]; Example 4, R-mirtazapine 10 mg/kg IP): significantly reduced the number of marbles buried
Number of marbles buried compared to vehicle ([2]; Example 4, R-mirtazapine 1, 2.5 and 5 mg/kg IP): did not affect this measure
Relative effects of R- and S-isomers of mirtazapine on marble burying (FIG. 2 legend) ([2]; R- vs S-isomer): greater effects

CN[C@H]1CC[C@@H](c2ccc(Cl)c(Cl)c2)c2ccccc21 [Sertraline]
Percentage WKY animals showing freezing behavior >85% of the time in response to cue stimuli across day 1 and 3 following fear conditioning, Mean ([1]; sertraline 20 mg/kg IP 30 min prior to test): 0.156
Freezing behavior, direction of change vs. vehicle ([1]; sertraline 20 mg/kg IP): Decrease
Freezing behavior, direction of change vs. vehicle ([1]; sertraline 20 mg/kg IP, listed as sertraline): significant reduction in freezing behavior

CN1CCN2c3ncccc3Cc3ccccc3C2C1 (racemic) [Mirtazapine]
Number of marbles buried compared to vehicle ([2]; Example 3, mirtazapine 5.5 mg/kg IP 30 min prior to test): significantly reduced the number of marbles buried
Number of marbles buried compared to vehicle ([2]; Example 4, mirtazapine 1, 2.5, 5 and 10 mg/kg IP): significantly reduced the number of marbles buried

O=C(O)[C@H]1CN(C/C=C/P(=O)(O)O)CCN1 [DCPPene, D-(E)-4-(3-phosphonoprop-2-enyl)piperazine-2-carboxylic acid]
Percentage WKY animals showing freezing behavior >85% of the time in response to cue stimuli across day 1 and 3 following fear conditioning, Mean ([1]; D-CPP-ene 5 mg/kg s.c. 30 min prior to extinction test): 0.625
Freezing behavior, direction of change vs. vehicle ([1]; D-CPP-ene 5 mg/kg s.c.): Increase
Freezing behavior, direction of change vs. vehicle ([1]; D-CPP-ene 5 mg/kg s.c., listed as D-CPPene): tended to increase freezing behavior

N[C@@H]1CON=C1O [D-cycloserine, 3-Isoxazolidinone, 4-amino-, (4R)-(9CI)]
DCS plasma level ([3]; 30 mg/kg IP, mice, mean across 30-120 min, difference from 25 not significant (p=0.2)): below 25 microgram/mL
DCS plasma level ([3]; 100 mg/kg and above IP, mice, mean across 30-120 min, p<0.01): > 25 microgram/mL
DCS plasma level ([3]; 300 mg/kg DCS as in prior examples): > 25 micrograms/mL
Percentage WKY animals showing freezing behavior >85% of the time in response to cue stimuli across day 1 and 3 following fear conditioning, Mean ([1]; DCS 30 mg/kg IP 30 min prior to extinction test): 0.281
Freezing behavior, direction of change vs. vehicle ([1]; DCS 30 mg/kg IP): no significant effect on freezing behavior
Percentage WKY animals showing freezing behavior >85% of the time in response to cue stimuli across day 1 and 3 following fear conditioning, Mean ([1]; DCS 300 mg/kg IP 30 min prior to extinction test): 0.113
Freezing behavior, direction of change vs. vehicle ([1]; DCS 300 mg/kg IP, listed as DCS): significant reduction in freezing behavior; also recorded: Decrease
Effect of high-dose DCS on freezing when added to lurasidone ([1]; DCS 300 mg/kg added to lurasidone 0.2 mg/kg, p=0.09): tended to decrease freezing
Effect of high-dose DCS on freezing in combination with quetiapine ([1]; DCS 300 mg/kg with quetiapine 10 mg/kg, p=0.3): without statistical effect
Locomotor activity vs. vehicle ([4]; D-cycloserine 30 mg/kg, p=0.5): not significantly affected
Locomotor activity vs. vehicle ([4]; D-cycloserine 300 mg/kg, p<0.001): significantly increased
Locomotor activity vs. vehicle ([4]; D-cycloserine 1000 mg/kg, p<0.001): significantly increased
Locomotor activity, Mean distance travelled over 30 min ([4]; DCS 30 mg/kg IP): 4432.1
Locomotor activity, Mean distance travelled over 30 min ([4]; DCS 300 mg/kg IP): 7588.5
Number of marbles buried compared to vehicle ([2]; Example 3, D-cycloserine 30 mg/kg IP 30 min prior to test): did not affect this measure
Number of marbles buried compared to vehicle ([2]; Example 3, D-cycloserine 300 mg/kg IP 30 min prior to test): did not affect this measure
mean plasma level [5]: 20. 2 microgram/mL
Plasma concentrations associated with antagonist effects ([6]; NMDAR glycine site): > 25 μg/mi
Plasma levels at which increased liability for toxicity is observed ([6]; in vivo): > 35000 ng/mL
median sustained plasma level [7]: 8.9 microgram/mL
Sustained plasma level following 500 mg administration [8]: below 25 microgram/mL

Fc1ccc([C@@H]2CCNC[C@H]2COc2ccc3c(c2)OCO3)cc1 [Paroxetine]
Number of marbles buried compared to vehicle ([2]; Example 3, paroxetine 5 mg/kg IP 30 min prior to test): significantly reduced the number of marbles buried
Number of marbles buried compared to vehicle ([2]; Example 4, paroxetine 5 mg/kg IP): significantly reduced the number of marbles buried

CN1CCN2c3ncccc3Cc3ccccc3[C@H]2C1 [S-mirtazapine, S-(+)-mirtazapine]
Effects on marble burying relative to racemic mirtazapine [2]: significantly more robust
Number of marbles buried compared to vehicle ([2]; Example 4, S-mirtazapine 1, 2.5, 5, 10 mg/kg IP): significantly reduced the number of marbles buried
Marble burying in the absence and presence of DCS ([2]; Example 4, S-mirtazapine with or without DCS): floor level effects
